# Test results published in patent EP0252983B1, “SALTS OF N-(VINYLOXIETHYL)DITHIOCARBAMIC ACID, METHOD OF OBTAINING THEREOF AND […] ON THEM” (priority 1985, dated 1987).
# Columns and labels:
# Bacillus = test: Bactericidal activity on agar (concentration of complete growth inhibition); format: cell-based; conditions: % bezogen auf den Wirkstoff; am 5. Tag; listed as Kaliumsalz
# Description: (§1) Geprüft wird die bakterizide Aktivität von Kalium-, Natrium-, Zink- und Kupfersalzen der N-(Vinyloxyäthyl)dithiocarbamidsäure gegen Bakterien der Gattungen Bacillus, Micrococcus, Pseudomonas, Escherichia und Xantomonas.
# (§2) Man stellt wäßrige Stofflösungen verschiedener Konzentration her, die so berechnet werden, daß die Stoffkonzentration in der Petri-Schale bei der Gabe von 1 ml Lösung in das geschmolzene Nährmedium (45 bis 50 °C) zwischen 0,003 und 25 % (bezogen auf den Wirkstoff) schwankt. Nach 18 bis 24 Stunden bringt man auf die Oberfläche des Nährmediums 0,1 ml wäßrige Suspension eintägiger reiner Kulturen von Bakterien auf und verteilt sie gleichmäßig. In Kontrollschalen verteilt sich 0,1 ml Wasser über die Oberfläche des Nährmediums. Die Inkubation erfolgt bei 37 °C innerhalb von 5 Tagen. Die Wirksamkeit der Stoffe wird nach dem Auftreten des Bakterienwachstums auf der Oberfläche des Nährmediums eingeschätzt. Die Prüfergebnisse sind in der Tabelle 13 dargestellt.
# Escherichia = test: as above; format: cell-based; conditions: % bezogen auf den Wirkstoff; am 5. Tag; listed as Kaliumsalz
# Description: as §1, §2
# Micrococcus = test: as above; format: cell-based; conditions: % bezogen auf den Wirkstoff; am 5. Tag; listed as Kaliumsalz
# Description: as §1, §2
# Pseudomonas = test: as above; format: cell-based; conditions: % bezogen auf den Wirkstoff; am 5. Tag; listed as Kaliumsalz
# Description: as §1, §2
# [1] = Solubility in water (descriptive); format: physicochemical
compound,measurement,setting,value
C=COCCNC(=S)S [Kalium-N-(vinyloxyäthyl)dithiocarbamat],"Konzentrationen, welche das Bakterienwachstum völlig (100 %) hemmen",Bacillus,"0,05%"
same,"Konzentrationen, welche das Bakterienwachstum völlig (100 %) hemmen",Escherichia,"0,05%"
same,"Konzentrationen, welche das Bakterienwachstum völlig (100 %) hemmen",Micrococcus,"0,05%"
same,"Konzentrationen, welche das Bakterienwachstum völlig (100 %) hemmen",Pseudomonas,"0,05%"
same,Löslichkeit in Wasser,[1],gut
